From US20220306617A1, “SUBSTITUTED 1,3-PHENYL HETEROARYL DERIVATIVES AND THEIR USE IN THE TREATMENT OF DISEASE” (NOVARTIS AG, priority 2019, published 2022) come the findings set out here.

Counter-ions that a name gives are not always drawn.

This assay has as its target T1, abc isoform of human TMEM16A channel expressed in CHO cells (Homo sapiens, UniProt Q5XXA6, DEL476-501).
T1 construct: expressed in transfected cells; host or cells: CHO cells, doxycycline-inducible expression under Blasticidin/Zeocin selection
T1 sequence (Q5XXA6 with tags, fused parts or gaps isoform Q5XXA6-5 DEL539-564): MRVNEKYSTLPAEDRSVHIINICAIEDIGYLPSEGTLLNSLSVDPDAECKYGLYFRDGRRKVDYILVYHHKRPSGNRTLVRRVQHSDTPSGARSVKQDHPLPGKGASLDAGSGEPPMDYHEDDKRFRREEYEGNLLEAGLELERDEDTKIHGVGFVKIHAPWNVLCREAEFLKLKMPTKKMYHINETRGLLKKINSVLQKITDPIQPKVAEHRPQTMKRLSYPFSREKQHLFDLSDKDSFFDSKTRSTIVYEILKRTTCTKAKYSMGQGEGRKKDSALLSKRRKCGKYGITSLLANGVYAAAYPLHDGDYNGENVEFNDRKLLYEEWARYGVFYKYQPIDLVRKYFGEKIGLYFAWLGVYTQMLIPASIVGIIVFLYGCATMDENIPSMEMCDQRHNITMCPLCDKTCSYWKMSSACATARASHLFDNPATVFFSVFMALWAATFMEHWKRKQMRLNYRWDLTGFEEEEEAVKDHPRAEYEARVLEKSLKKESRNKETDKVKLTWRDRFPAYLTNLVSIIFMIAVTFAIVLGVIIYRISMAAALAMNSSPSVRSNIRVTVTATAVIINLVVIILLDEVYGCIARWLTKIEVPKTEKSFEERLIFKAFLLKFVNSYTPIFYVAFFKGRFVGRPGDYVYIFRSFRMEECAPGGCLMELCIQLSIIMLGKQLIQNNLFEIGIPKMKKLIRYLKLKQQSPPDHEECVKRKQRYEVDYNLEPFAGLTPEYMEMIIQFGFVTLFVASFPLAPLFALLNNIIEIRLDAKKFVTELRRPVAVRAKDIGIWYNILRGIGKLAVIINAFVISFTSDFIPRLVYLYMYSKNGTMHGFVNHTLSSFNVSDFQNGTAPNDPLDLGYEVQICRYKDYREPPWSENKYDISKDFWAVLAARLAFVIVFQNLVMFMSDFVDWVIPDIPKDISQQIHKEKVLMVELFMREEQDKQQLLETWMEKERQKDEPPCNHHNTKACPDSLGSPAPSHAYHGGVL
Description: Automated patch clamping (QPatch) assay to measure TMEM16A activity in whole-cell. Format: cell-based. Conditions: for EC50: CHO cells expressing human TMEM16A (abc), whole-cell automated patch clamp, Hill fit, read-out: TMEM16A QPATCH assay EC50 V3 EC50; for Emax: CHO, read-out: TMEM16A QPATCH assay EC50 V3 Assay Window (% TMEM16A max activation). The gist of the method: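 CHO cells with doxycycline-induced (1 μg/mL, 18-24 h) human TMEM16A abc isoform; QPatch whole-cell recording, hold −70 mV, step +70 mV 1500 ms, then −90 to +70 mV ramp. Compounds in 0.3% DMSO; EC50 by Hill fit; % max activation relative to vehicle baseline and reference potentiator maximum.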

The mark [1] stands for this setting: maximum current at highest dose relative to reference potentiator at maximal concentration (upper limit) and vehicle (lower limit).

As to `C[C@H](NC(=O)c1nnc(-c2cccc(-c3ncc(C(=O)NC(C4CC4)C4CC4)o3)c2)[nH]1)C1CC1` [Example 12.5, (S)-2-(3-(5-((1-Cyclopropylethyl)Carbamoyl)-4H-1,2,4-Triazol-3-Yl)Phenyl)-N-(Dicyclopropylmethyl)Oxazole-5-Carboxamide], the concentration for a half-maximal effect (EC50) (usually the midpoint of the concentration-response curve) was found to be 30 nM. For the same compound, under setting [1], the Emax worked out at 92%.
Taken in the same sequence, the figures for `CCC(CC)NC(=O)c1cc(-c2cccc(-c3ncc(C(=O)NCc4ccc5c(c4)OCO5)o3)c2)[nH]n1` [Example 1.31, N-(Benzo[d][1,3]Dioxol-5-Ylmethyl)-2-(3-(3-(Pentan-3-Ylcarbamoyl)-1 H-Pyrazol-5-yl)Phenyl)Oxazole-5-Carboxamide] were 770 nM and 65%.
`C[C@H](NC(=O)c1nnc(-c2cccc(-c3ncc(C(=O)NC4(C5CC5)CC4)o3)c2)[nH]1)C1CC1` [Example 12.15]: the EC50 came out at 390 nM. Besides, the Emax under setting [1] is 72%.
In the case of `CCC(CC)NC(=O)c1cc(-c2cccc(-c3ncc(C(=O)N[C@H](C(=O)OC)c4ccccc4)o3)c2)[nH]n1` [Example 1.15, (S)-Methyl 2-(2-(3-(3-(Pentan-3-Ylcarbamoyl)-1H-Pyrazol-5-yl)Phenyl)Oxazole-5-Carboxamido)-2-Phenylacetate], the EC50 stood at 410 nM. In addition, the Emax under setting [1] is 100%.
Taken in the same sequence, the figures for `CCC(CC)NC(=O)c1cnc(-c2cccc(-c3nc(C(=O)NC(CC)CC)n(CCNCc4ccccc4)n3)c2)o1` [Example 15.6, 2-(3-(1-(2-(Benzylamino)Ethyl)-5-(Pentan-3-Ylcarbamoyl)-1H-1,2,4-Triazol-3-Yl)Phenyl)-N-(Pentan-3-Yl)Oxazole-5-Carboxamide] were 330 nM and 154%.
On to `CCC(CC)NC(=O)c1cnc(-c2cccc(-c3cc(C(=O)N[C@H](CCSC)C(=O)OC)n[nH]3)c2)o1` [Example 3.46, (R)-Methyl 4-(Methylthio)-2-(5-(3-(5-(Pentan-3-Ylcarbamoyl)Oxazol-2-yl)Phenyl)-1H-Pyrazole-3-Carboxamido)Butanoate], for which the EC50 is 800 nM. Under setting [1], the Emax is 80%.
Taken in the same sequence, the figures for `CCC(CC)NC(=O)c1cnc(-c2cccc(-c3cc(C(=O)N[C@@H](C)C4CC4)n[nH]3)c2)o1` [Example 3.25, (S)-2-(3-(3-((1-Cyclopropylethyl)Carbamoyl)-1H-Pyrazol-5-Yl)Phenyl)-N-(Pentan-3-Yl)Oxazole-5-Carboxamide] were 40 nM and 90%.
Turning to `CCC(CC)NC(=O)c1cnc(-c2cccc(-c3cc(C(=O)NCC4(N5CCOCC5)CCCCC4)n[nH]3)c2)o1` [Example 3.67, 2-(3-(3-(((1-Morpholinocyclohexyl)Methyl)Carbamoyl)-1H-Pyrazol-5-Yl)Phenyl)-N-(Pentan-3-Yl)Oxazole-5-Carboxamide Trifluoroacetate], the EC50 came out at 790 nM. Further, under setting [1], the Emax came to 68%.
On the same counts, the results for `CCC(CC)NC(=O)c1cnc(-c2cccc(-c3cc(C(=O)N[C@@H](C)C4CC4)n(C4COC4)n3)c2)o1` [Example 9.3, (S)-2-(3-(5-((1-Cyclopropylethyl)Carbamoyl)-1-(Oxetan-3-Yl)-1H-Pyrazol-3-Yl)Phenyl)-N-(Pentan-3-Yl)Oxazole-5-Carboxamide] are 400 nM and 143%.
`COC(=O)[C@@H](NC(=O)c1cnc(-c2cccc(-c3cc(C(=O)NC(C4CC4)C4CC4)n(CC(C)(C)O)n3)c2)o1)C(C)C` [Example 9.4, (S)-Methyl 2-(2-(3-(5-((Dicyclopropylmethyl)Carbamoyl)-1-(2-Hydroxy-2-Methylpropyl)-1 H-Pyrazol-3-Yl)Phenyl)Oxazole-5-Carboxamido)-3-Methylbutanoate]: the EC50 is 420 nM. The Emax under setting [1] was 105%.
On the same counts, the results for `CCOC(=O)[C@H](CC1CCCCC1)NC(=O)c1cc(-c2cccc(-c3ncc(C(=O)NC(CC)CC)o3)c2)[nH]n1` [Example 3.17, (S)-Ethyl 3-Cyclohexyl-2-(5-(3-(5-(Pentan-3-Ylcarbamoyl)Oxazol-2-Yl)Phenyl)-1 H-Pyrazole-3-Carboxamido)Propanoate] are 170 nM and 66%.
Regarding `COC(=O)[C@H](CC1CCCCC1)NC(=O)c1cnc(-c2cccc(-c3nnc(C(=O)N[C@@H](C)C4CC4)[nH]3)c2)o1` [Example 12.17, (S)-Methyl 3-Cyclohexyl-2-(2-(3-(5-(((S)-1-Cyclopropylethyl)Carbamoyl)-4H-1,2,4-Triazol-3-Yl)Phenyl)Oxazole-5-Carboxamido)Propanoate], the EC50 turned out to be 470 nM. Further, under setting [1], the Emax was found to be 77%.
Consider `CCC(CC)NC(=O)c1cc(-c2cccc(-c3ncc(C(=O)Nc4ccon4)o3)c2)[nH]n1` [Example 1.30, N-(Isoxazol-3-Yl)-2-(3-(3-(Pentan-3-Ylcarbamoyl)-1 H-Pyrazol-5-yl)Phenyl)Oxazole-5-Carboxamide], for which the 50% effective concentration (EC50) came out at 870 nM. In addition, under setting [1], the Emax was determined as 62%.
Taken in the same sequence, the figures for `CCOC(=O)[C@@H](NC(=O)c1cnc(-c2cccc(-c3cc(C(=O)N[C@@H](C)C4CC4)n[nH]3)c2)o1)C(C)C` [Example 1.0, (S)-Ethyl 2-(2-(3-(3-(((S)-1-Cyclopropylethyl)Carbamoyl)-1H-Pyrazol-5-Yl)Phenyl)Oxazole-5-Carboxamido)-3-Methylbutanoate] were 40 nM and 79%.
On the same counts, the results for `CCOC(=O)[C@H](CC(C)C)NC(=O)c1cc(-c2cccc(-c3ncc(C(=O)NC(CC)CC)o3)c2)[nH]n1` [Example 3.60, (S)-Ethyl 4-Methyl-2-(5-(3-(5-(Pentan-3-Ylcarbamoyl)Oxazol-2-Yl)Phenyl)-1H-Pyrazole-3-Carboxamido)Pentanoate Trifluoroacetate] are 160 nM and 150%.
On the same counts, the results for `CCC(CC)NC(=O)c1cnc(-c2cccc(-c3cc(C(=O)NCC4CC4)n[nH]3)c2)o1` [Example 3.32, 2-(3-(3-((Cyclopropylmethyl)Carbamoyl)-1 H-Pyrazol-5-Yl)Phenyl)-N-(Pentan-3-Yl)Oxazole-5-Carboxamide] are 110 nM and 55%.
Regarding `C[C@H](NC(=O)c1cnc(-c2cccc(-c3nnc(C(=O)NC4CCC(F)(F)CC4)[nH]3)c2)o1)C1CC1` [Example 13.4, (S)-N-(1-Cyclopropylethyl)-2-(3-(5-((4,4-Difluorocyclohexyl)Carbamoyl)-4H-1,2,4-Triazol-3-Yl)Phenyl)Oxazole-5-Carboxamide], the EC50 worked out at 940 nM. Moreover, under setting [1], the Emax was found to be 80%.
On the same counts, the results for `CCC(CC)NC(=O)c1cnc(-c2cccc(-c3cc(C(=O)N[C@@H](C)C4CC4)n(CCO)n3)c2)o1` [Example 9.8, (S)-2-(3-(5-((1-cyclopropylethyl)carbamoyl)-1-(2-hydroxyethyl)-1 H-pyrazol-3-yl)phenyl)-N-(pentan-3-yl)oxazole-5-carboxamide] are 180 nM and 88%.
Taken in the same sequence, the figures for `CCC(CC)NC(=O)c1cc(-c2cccc(-c3ncc(C(=O)N[C@@H](CC(C)C)C(=O)OC)o3)c2)[nH]n1` [Example 1.26, (S)-Methyl 4-Methyl-2-(2-(3-(3-(Pentan-3-Ylcarbamoyl)-1H-Pyrazol-5-yl)Phenyl)Oxazole-5-Carboxamido)Pentanoate] were 640 nM and 91%.
Turning to `C[C@H](NC(=O)c1cnc(-c2cccc(-c3nnc(C(=O)NC(C4CC4)C4CC4)[nH]3)c2)o1)C1CC1` [Example 12.7, (S)-N-(1-Cyclopropylethyl)-2-(3-(5-((Dicyclopropylmethyl)Carbamoyl)-4H-1,2,4-Triazol-3-Yl)Phenyl)Oxazole-5-Carboxamide], the EC50 came out at 20 nM. Besides, the Emax under setting [1] stood at 91%.
Regarding `CCC(CC)NC(=O)c1cnc(-c2cccc(-c3cc(C(=O)NC(C4CC4)C4CCCO4)n[nH]3)c2)o1` (single isomer, unassigned) [Example 3.4 (i), 2-(3-(3-((Cyclopropyl(Tetrahydrofuran-2-Yl)Methyl)Carbamoyl)-1H-Pyrazol-5-Yl)Phenyl)-N-(Pentan-3-Yl)Oxazole-5-Carboxamide], the EC50 came to 710 nM. The “TMEM16A QPATCH assay EC50 V3 Assay Window (% TMEM16A max activation)” value under setting [1] is given as 90%.
